Calls of active or inactive are those of the source. The calls are words filed in the database; no cut-off is given here.

Test [1] deals with T1, Gastrin/cholecystokinin type B receptor (Rattus norvegicus) (UniProt P30553).
T1 sequence (whole entry): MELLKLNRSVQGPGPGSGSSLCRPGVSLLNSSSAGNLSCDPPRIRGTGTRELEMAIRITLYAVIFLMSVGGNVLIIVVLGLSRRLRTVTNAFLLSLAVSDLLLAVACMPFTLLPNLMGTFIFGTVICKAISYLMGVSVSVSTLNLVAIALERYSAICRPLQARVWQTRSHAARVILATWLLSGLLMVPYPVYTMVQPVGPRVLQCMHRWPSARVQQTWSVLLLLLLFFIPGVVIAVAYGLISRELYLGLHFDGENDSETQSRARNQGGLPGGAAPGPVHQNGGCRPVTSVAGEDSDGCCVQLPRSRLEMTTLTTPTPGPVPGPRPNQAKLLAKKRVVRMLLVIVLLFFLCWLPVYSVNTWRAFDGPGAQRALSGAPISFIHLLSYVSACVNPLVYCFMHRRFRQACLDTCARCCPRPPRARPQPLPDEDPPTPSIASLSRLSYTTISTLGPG
As to the kind of experiment: Affinity for CCK2 receptor assessed by inhibition of pentagastrin-stimulated acid secretion in perfused rat stomach at 1 uM. The class given is functional, tissue-based.

Test [2] concerns the target T2, Gastrin/cholecystokinin type B receptor (Homo sapiens, UniProt P32239).
T2 sequence (P32239 whole entry): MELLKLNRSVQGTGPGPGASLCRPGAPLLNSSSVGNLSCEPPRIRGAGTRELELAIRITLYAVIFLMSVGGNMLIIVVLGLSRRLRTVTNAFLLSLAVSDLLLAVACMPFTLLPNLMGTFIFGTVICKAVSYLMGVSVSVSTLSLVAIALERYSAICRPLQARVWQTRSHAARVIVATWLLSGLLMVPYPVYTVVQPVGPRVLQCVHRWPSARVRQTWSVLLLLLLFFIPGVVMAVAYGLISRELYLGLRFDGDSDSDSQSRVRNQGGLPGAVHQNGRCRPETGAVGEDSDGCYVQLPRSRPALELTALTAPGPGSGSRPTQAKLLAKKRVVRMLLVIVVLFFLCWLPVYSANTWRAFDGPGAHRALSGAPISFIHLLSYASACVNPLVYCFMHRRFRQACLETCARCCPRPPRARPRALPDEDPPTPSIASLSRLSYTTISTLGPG
Briefly: Displacement of [125I]BH-CCK-8S from human recombinant CCK2 receptor expressed in NIH3T3 cells. The class given is cell-based. For orientation: In a radioligand displacement assay an active substance lowers the binding of a labelled ligand.

In test [3] the target is T3, Cholecystokinin receptor type A (Homo sapiens) (UniProt P32238).
T3 sequence (whole entry): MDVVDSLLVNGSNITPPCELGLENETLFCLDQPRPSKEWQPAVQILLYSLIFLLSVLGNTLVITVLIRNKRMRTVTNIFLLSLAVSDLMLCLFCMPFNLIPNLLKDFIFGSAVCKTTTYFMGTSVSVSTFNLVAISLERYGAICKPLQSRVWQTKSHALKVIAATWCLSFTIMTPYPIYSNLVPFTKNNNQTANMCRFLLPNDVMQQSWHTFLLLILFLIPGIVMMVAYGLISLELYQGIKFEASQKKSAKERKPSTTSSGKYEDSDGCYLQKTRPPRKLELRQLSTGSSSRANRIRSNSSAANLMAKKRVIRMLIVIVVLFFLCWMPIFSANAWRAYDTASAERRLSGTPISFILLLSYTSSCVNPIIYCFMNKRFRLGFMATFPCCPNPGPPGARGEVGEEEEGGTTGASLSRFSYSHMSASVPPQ
Briefly: Inhibition of [3H]L-364718 binding to human recombinant CCK1 receptor expressed in CHO cell line at 10 uM. The class given is cell-based.

The target of test [4] is T4, Gastrin/cholecystokinin type B receptor (Rattus norvegicus, UniProt P30553).
T4 sequence (P30553 whole entry): T1 sequence (whole entry)
As to the kind of experiment: Affinity for CCK2 receptor assessed by inhibition of pentagastrin-stimulated acid secretion in perfused rat stomach. The class given is functional, tissue-based. Conditions: read-out: pA2 (converted).

For test [5], the target named is T5, Cholecystokinin receptor type A (Homo sapiens, UniProt P32238).
T5 sequence (P32238 whole entry): T3 sequence (whole entry)
As to the kind of experiment: Displacement of [3H]L-364718 from human recombinant CCK1 receptor expressed in PC3 cell line. The class given is cell-based, PC-3.

Test [6] concerns the target T6, Gastrin/cholecystokinin type B receptor (Canis lupus familiaris, UniProt P30552).
T6 sequence (P30552 whole entry): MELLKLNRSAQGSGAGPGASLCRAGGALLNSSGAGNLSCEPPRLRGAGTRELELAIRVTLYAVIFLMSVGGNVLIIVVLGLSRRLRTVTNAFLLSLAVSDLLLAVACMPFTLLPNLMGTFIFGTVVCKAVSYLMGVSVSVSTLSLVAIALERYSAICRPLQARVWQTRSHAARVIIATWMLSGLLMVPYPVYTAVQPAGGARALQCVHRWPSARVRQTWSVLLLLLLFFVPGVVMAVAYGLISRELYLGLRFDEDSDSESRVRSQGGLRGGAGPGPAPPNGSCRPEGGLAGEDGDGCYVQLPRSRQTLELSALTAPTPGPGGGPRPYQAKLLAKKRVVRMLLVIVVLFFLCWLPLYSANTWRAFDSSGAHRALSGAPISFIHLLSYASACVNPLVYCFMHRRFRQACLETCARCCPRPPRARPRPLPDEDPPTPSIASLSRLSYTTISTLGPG
Briefly: Binding affinity to canine CCK2 receptor.

The target of test [7] is T3, Cholecystokinin receptor type A (Homo sapiens). Briefly: Inhibition of [3H]L-364718 binding to human recombinant CCK1 receptor expressed in PC3 cell line at 10 uM. Conditions: PC-3. The class given is cell-based.
In test [8] the target is T5, Cholecystokinin receptor type A. As to the kind of experiment: Displacement of [3H]L-364718 from human recombinant CCK1 receptor expressed in CHO cell line. The class given is cell-based.

Turning to `COc1cccc(NC(=O)CN2N=C(C3CCCCC3)c3ccccc3N(CC(=O)C(C)(C)C)C2=O)c1`, the pA2 result in test [1] was “inactive”. In addition, the Ki in test [2] is 5.5 nM. Besides, the inhibition in test [3] came out at 46%.
As to `CNc1cccc(NC(=O)N[C@@H]2N=C(c3ccccn3)c3ccccc3N(CC(=O)C(C)(C)C)C2=O)c1` [NETAZEPIDE], the Kb in test [4] is 0.0794 nM. The Ki was 0.138 nM in test [2] and 30.2 nM in test [5].
For `Cc1cccc(NC(=O)N[C@@H]2N=C(c3ccccc3)c3ccccc3N(C)C2=O)c1` [L-365260], the Ki in test [5] is 174 nM.
For the compound `CC(C)(C)C(=O)CN1C(=O)N(CC(=O)Nc2cccc(N)c2)N=C(C2CCCCC2)c2ccccc21`, the Ki in test [2] is 26.9 nM. Moreover, the inhibition in test [3] worked out at 40%.
For `CC(C)(C)C(=O)CN1C(=O)N(CC(=O)Nc2cccc(C(=O)O)c2)N=C(C2CCCCC2)c2ccccc21`, in test [4], the Kb is 0.977 nM. Further, the Ki is 5.13 nM in test [2], 11200 nM in test [5] and 12.3 nM in test [6].
With `CNc1cccc(NC(=O)CN2N=C(c3ccccc3)c3ccccc3N(CC(=O)C(C)(C)C)C2=O)c1`, the Ki in test [2] is 74.1 nM. The inhibition in test [7] came out at 21%.
As to `CNc1cccc(NC(=O)CN2N=C(c3ccccn3)c3ccccc3N(CC(=O)C(C)(C)C)C2=O)c1`, the Kb in test [4] is 224 nM. In test [2], the Ki was 195 nM. Also, the inhibition in test [7] came to 22%.
Take `CC(C)(C)C(=O)CN1C(=O)N(CC(=O)Nc2cccc(N3CCCC3)c2)N=C(C2CCCCC2)c2ccccc21`: the Ki in test [2] is 15.8 nM; in test [5] it was over 10000 nM.
Take `CNc1cccc(NC(=O)CN2N=C(c3ccccn3)c3ccccc3N(CC(=O)N3CCCC3)C2=O)c1`: the inhibition constant Ki in test [2] was 2510 nM.
Turning to `CNc1cccc(NC(=O)CN2N=C(c3ccccn3)c3ccccc3N(CC(=O)c3ccccc3C)C2=O)c1`, in test [2], the Ki is 288 nM.
Turning to `CNc1cccc(NC(=O)C[C@@H]2N=C(C3CCCCC3)c3ccccc3N(CC(=O)C(C)(C)C)C2=O)c1`, the Kb in test [4] was 28.2 nM. Besides, the inhibition constant Ki was 6.03 nM in test [2] and 1170 nM in test [5].
Consider `CNCCN(C)c1cccc(NC(=O)CN2N=C(C3CCCCC3)c3ccccc3N(CC(=O)C(C)(C)C)C2=O)c1`, for which the Ki was 29.5 nM in test [2] and 8710 nM in test [8].
Turning to `CC(C)(C)C(=O)CN1C(=O)N(CC(=O)Nc2cccc(N3CCOCC3)c2)N=C(C2CCCCC2)c2ccccc21`, the Ki in test [2] was 16.6 nM. In test [3], the inhibition was 42%.
Consider `CNc1cccc(NC(=O)CN2N=C(C3CCCCC3)c3ccccc3N(CC(=O)C(C)(C)C)C2=O)c1`, for which the Ki in test [2] is 7.94 nM; in test [5] it was over 10000 nM.
As for `CCOCCNc1cccc(NC(=O)CN2N=C(C3CCCCC3)c3ccccc3N(CC(=O)C(C)(C)C)C2=O)c1`, the figures for the Ki in test [2] and in test [5] were 44.7 nM and over 10000 nM, respectively.
As for `CC(C)(C)C(=O)CN1C(=O)N(CC(=O)Nc2cccc(CO)c2)N=C(C2CCCCC2)c2ccccc21`, the Ki in test [2] is 15.1 nM; in test [5] it was 5890 nM.
In the case of `Cc1cccc(NC(=O)CN2N=C(C3CCCCC3)c3ccccc3N(CC(=O)C(C)(C)C)C2=O)c1`, the pA2 result in test [1] was “inactive”. Further, the Ki in test [2] was 8.91 nM. Further, the inhibition in test [7] was determined as 27%.
Consider `CNc1cccc(NC(=O)C[C@H]2N=C(C3CCCCC3)c3ccccc3N(CC(=O)C(C)(C)C)C2=O)c1`, for which the Kb in test [4] is 28.8 nM. The Ki was 13.2 nM in test [2] and 724 nM in test [5].
In the case of `CN(C)c1cccc(NC(=O)CN2N=C(C3CCCCC3)c3ccccc3N(CC(=O)C(C)(C)C)C2=O)c1`, the Ki in test [2] is 6.03 nM. For the same compound, the inhibition in test [7] was 16%.
Consider `CC(C)(C)C(=O)CN1C(=O)N(CC(=O)Nc2cccc(O)c2)N=C(C2CCCCC2)c2ccccc21`, for which the Ki is 13.2 nM in test [2] and 1510 nM in test [8].
Turning to `CC(C)(C)C(=O)CN1C(=O)N(CC(=O)Nc2cccc(-n3ccnc3)c2)N=C(C2CCCCC2)c2ccccc21`, the Ki in test [2] was 9.12 nM. In addition, the inhibition in test [3] is 57%.

As a reminder, the Ki is the dissociation constant of the complex between target and ligand, obtained from inhibition or displacement. As usually defined, the inhibition is the drop in the measured response relative to a control, in per cent.
